Measured values published in ChEMBL document CHEMBL5303573, “Mapping human microbiome drug metabolism by gut bacteria and their genes” (Nature, 2019).

Assays:
[1] = The drug is tested on Bacteroides dorei strain: DSM17855 for biotransformation. The drug concentrations were measured before and after a 12-h incubation by liquid-chromatography-coupled mass spectrometry (LC–MS); settings: phocaeicola dorei, 2 µM
[2] = The drug is tested on Collinsella aerofaciens strain: ATCC25986 for biotransformation. The drug concentrations were measured before and after a 12-h incubation by liquid-chromatography-coupled mass spectrometry (LC–MS); settings: 2 µM
[3] = The drug is tested on Blautia hansenii strain: DSM20583 for biotransformation. The drug concentrations were measured before and after a 12-h incubation by liquid-chromatography-coupled mass spectrometry (LC–MS); settings: 2 µM
[4] = The drug is tested on Eubacterium rectale strain: ATCC33656 for biotransformation. The drug concentrations were measured before and after a 12-h incubation by liquid-chromatography-coupled mass spectrometry (LC–MS); settings: agathobacter rectalis, 2 µM
[5] = The drug is tested on Anaerotruncus colihominis strain: DSM17241 for biotransformation. The drug concentrations were measured before and after a 12-h incubation by liquid-chromatography-coupled mass spectrometry (LC–MS); settings: 2 µM
[6] = The drug is tested on Blautia luti strain: DSM14534 for biotransformation. The drug concentrations were measured before and after a 12-h incubation by liquid-chromatography-coupled mass spectrometry (LC–MS); assay type: ADME; set-up: dose 2 uM, timepoint 0 vs 12 hours; settings: 2 µM
[7] = The drug is tested on Bacteroides xylanisolvens strain: DSM18836 for biotransformation. The drug concentrations were measured before and after a 12-h incubation by liquid-chromatography-coupled mass spectrometry (LC–MS); settings: 2 µM
[8] = The drug is tested on Bifidobacterium breve strain: DSM20213 for biotransformation. The drug concentrations were measured before and after a 12-h incubation by liquid-chromatography-coupled mass spectrometry (LC–MS); settings: 2 µM
[9] = The drug is tested on Bifidobacterium ruminantium strain: fecal isolate for biotransformation. The drug concentrations were measured before and after a 12-h incubation by liquid-chromatography-coupled mass spectrometry (LC–MS); settings: 2 µM
[10] = The drug is tested on Bifidobacterium longum subsp. Infantis strain: CCUG52486 for biotransformation. The drug concentrations were measured before and after a 12-h incubation by liquid-chromatography-coupled mass spectrometry (LC–MS); settings: 2 µM
[11] = The drug is tested on Bacteroides uniformis strain: ATCC8492 for biotransformation. The drug concentrations were measured before and after a 12-h incubation by liquid-chromatography-coupled mass spectrometry (LC–MS); settings: 2 µM
[12] = The drug is tested on Collinsella intestinalis strain: DSM13280 for biotransformation. The drug concentrations were measured before and after a 12-h incubation by liquid-chromatography-coupled mass spectrometry (LC–MS); settings: 2 µM
[13] = The drug is tested on Providencia stuartii strain: ATCC25827 for biotransformation. The drug concentrations were measured before and after a 12-h incubation by liquid-chromatography-coupled mass spectrometry (LC–MS); settings: 2 µM
[14] = anaerostipes sp., 12 h, 2 µM
Description: The drug is tested on Anaerostipes sp. strain: fecal isolate for biotransformation. The drug concentrations were measured before and after a 12-h incubation by liquid-chromatography-coupled mass spectrometry (LC–MS)

[15] = The drug is tested on Enterococcus faecalis strain: V583 for biotransformation. The drug concentrations were measured before and after a 12-h incubation by liquid-chromatography-coupled mass spectrometry (LC–MS); settings: 2 µM
[16] = The drug is tested on Clostridium scindens strain: ATCC35704 for biotransformation. The drug concentrations were measured before and after a 12-h incubation by liquid-chromatography-coupled mass spectrometry (LC–MS); settings: 2 µM
[17] = bacteroides thetaiotaomicron, 12 h, 2 µM
Description: The drug is tested on Bacteroides thetaiotaomicron strain: VPI-5482 for biotransformation. The drug concentrations were measured before and after a 12-h incubation by liquid-chromatography-coupled mass spectrometry (LC–MS)

[18] = The drug is tested on Parabacteroides merdae strain: ATCC43184 for biotransformation. The drug concentrations were measured before and after a 12-h incubation by liquid-chromatography-coupled mass spectrometry (LC–MS); settings: 2 µM
[19] = The drug is tested on Bacteroides fragilis strain: HMW615 for biotransformation. The drug concentrations were measured before and after a 12-h incubation by liquid-chromatography-coupled mass spectrometry (LC–MS); settings: 2 µM

SMILES	Bacterial Biotransformation [13]	Bacterial Biotransformation [14]	Bacterial Biotransformation [15]	Bacterial Biotransformation [17]	Bacterial Biotransformation [1]	Bacterial Biotransformation [2]	Bacterial Biotransformation [3]	Bacterial Biotransformation [4]	Bacterial Biotransformation [5]	Bacterial Biotransformation [6]	Bacterial Biotransformation [7]	Bacterial Biotransformation [8]	Bacterial Biotransformation [9]	Bacterial Biotransformation [10]	Bacterial Biotransformation [11]	Bacterial Biotransformation [12]	Bacterial Biotransformation [16]	Bacterial Biotransformation [18]	Bacterial Biotransformation [19]
CN1[C@@H]2CC[C@H]1C[C@@H](OC(=O)C(CO)c1ccccc1)C2 (some centres not stated) [ATROPINE]					Compound NOT metabolized	Compound NOT metabolized	Compound NOT metabolized	Compound NOT metabolized	Compound NOT metabolized	Compound NOT metabolized	Compound NOT metabolized	Compound NOT metabolized	Compound NOT metabolized	Compound NOT metabolized	Compound NOT metabolized	Compound NOT metabolized			
CN(C)CC(c1ccc(O)cc1)C1(O)CCCCC1.O=C(O)CCC(=O)O (configuration not stated) [DESVENLAFAXINE SUCCINATE]	Compound NOT metabolized	Compound NOT metabolized	Compound NOT metabolized	Compound NOT metabolized	Compound NOT metabolized	Compound NOT metabolized			Compound NOT metabolized	Compound NOT metabolized	Compound NOT metabolized	Compound NOT metabolized		Compound NOT metabolized	Compound NOT metabolized	Compound NOT metabolized	Compound NOT metabolized	Compound NOT metabolized	
CCN(CC)CCOC(=O)C1(C2CCCCC2)CCCCC1 [DICYCLOMINE]		Compound NOT metabolized	Compound NOT metabolized	Compound NOT metabolized	Compound metabolized	Compound NOT metabolized			Compound NOT metabolized	Compound NOT metabolized	Compound metabolized	Compound NOT metabolized				Compound NOT metabolized			
COCCc1ccc(OCC(O)CNC(C)C)cc1.COCCc1ccc(OCC(O)CNC(C)C)cc1.O=C(O)C(O)C(O)C(=O)O (configuration not stated) [METOPROLOL TARTRATE]	Compound NOT metabolized	Compound NOT metabolized	Compound NOT metabolized	Compound NOT metabolized	Compound NOT metabolized	Compound NOT metabolized		Compound NOT metabolized	Compound NOT metabolized	Compound NOT metabolized		Compound NOT metabolized	Compound metabolized	Compound NOT metabolized	Compound NOT metabolized	Compound NOT metabolized	Compound NOT metabolized	Compound NOT metabolized	Compound NOT metabolized
Cc1cc2c(s1)Nc1ccccc1N=C2N1CCN(C)CC1 [OLANZAPINE]		Compound NOT metabolized	Compound NOT metabolized		Compound NOT metabolized	Compound NOT metabolized		Compound NOT metabolized	Compound NOT metabolized	Compound NOT metabolized	Compound NOT metabolized	Compound NOT metabolized	Compound NOT metabolized	Compound NOT metabolized		Compound NOT metabolized	Compound NOT metabolized		Compound metabolized
COc1ccc(Cc2nccc3cc(OC)c(OC)cc23)cc1OC [PAPAVERINE]	Compound NOT metabolized	Compound NOT metabolized	Compound NOT metabolized	Compound NOT metabolized	Compound metabolized	Compound NOT metabolized		Compound NOT metabolized	Compound NOT metabolized	Compound NOT metabolized	Compound NOT metabolized	Compound NOT metabolized	Compound NOT metabolized	Compound NOT metabolized		Compound NOT metabolized	Compound NOT metabolized	Compound NOT metabolized	

Continued, in another order:

Bacterial Biotransformation [13]	Bacterial Biotransformation [14]	Bacterial Biotransformation [15]	Bacterial Biotransformation [17]	SMILES	Bacterial Biotransformation [1]	Bacterial Biotransformation [2]	Bacterial Biotransformation [3]	Bacterial Biotransformation [4]	Bacterial Biotransformation [5]	Bacterial Biotransformation [6]	Bacterial Biotransformation [7]	Bacterial Biotransformation [8]	Bacterial Biotransformation [9]	Bacterial Biotransformation [10]	Bacterial Biotransformation [11]	Bacterial Biotransformation [12]	Bacterial Biotransformation [16]	Bacterial Biotransformation [18]	Bacterial Biotransformation [19]
Compound NOT metabolized	Compound NOT metabolized	Compound NOT metabolized	Compound NOT metabolized	O=C(Nc1ccccc1)OCC(CN1CCCCC1)OC(=O)Nc1ccccc1 (configuration not stated) [DIPERODON]	Compound NOT metabolized	Compound NOT metabolized		Compound NOT metabolized	Compound NOT metabolized	Compound NOT metabolized	Compound NOT metabolized	Compound NOT metabolized	Compound NOT metabolized	Compound NOT metabolized	Compound NOT metabolized	Compound NOT metabolized	Compound NOT metabolized	Compound NOT metabolized	Compound NOT metabolized
Compound NOT metabolized	Compound NOT metabolized	Compound NOT metabolized	Compound NOT metabolized	O=C(CCCN1CCC(O)(c2ccc(Cl)cc2)CC1)c1ccc(F)cc1 [HALOPERIDOL]	Compound NOT metabolized	Compound NOT metabolized		Compound NOT metabolized		Compound NOT metabolized		Compound NOT metabolized	Compound NOT metabolized	Compound NOT metabolized		Compound NOT metabolized	Compound NOT metabolized	Compound NOT metabolized	
Compound NOT metabolized	Compound NOT metabolized	Compound NOT metabolized	Compound NOT metabolized	Nc1nnc(-c2cccc(Cl)c2Cl)c(N)n1 [LAMOTRIGINE]	Compound NOT metabolized	Compound NOT metabolized		Compound NOT metabolized	Compound NOT metabolized	Compound NOT metabolized	Compound NOT metabolized	Compound NOT metabolized	Compound NOT metabolized		Compound NOT metabolized	Compound NOT metabolized	Compound NOT metabolized		Compound NOT metabolized
Compound NOT metabolized	Compound NOT metabolized	Compound NOT metabolized	Compound NOT metabolized	CN1CCOC(c2ccccc2)c2ccccc2C1 (configuration not stated) [NEFOPAM]		Compound NOT metabolized		Compound NOT metabolized	Compound NOT metabolized	Compound NOT metabolized	Compound NOT metabolized	Compound NOT metabolized	Compound NOT metabolized	Compound NOT metabolized		Compound NOT metabolized	Compound NOT metabolized	Compound NOT metabolized	
